Laboratory results as given in patent US20230271959A1, “HETEROCYCLIC COMPOUND AS BCL-2 INHIBITOR” (Beijing Innocare Pharma Tech Co., Ltd., priority 2020, published 2023).

Experiments:
[1] = molecular target: T1, human recombinant Bcl-2 protein (Homo sapiens, UniProt P10415); test: Fluorescence polarization test for inhibition of BCL-2 binding to FITC-BIM; settings: 5 nM BCL-2, 5 nM FITC-BIM, read-out: FP BCL-2 IC50
T1 construct: purchased Beijing Yigiao Shenzhou Biotechnology Co., Ltd. 10195-HOSE
T1 sequence (P10415 whole entry): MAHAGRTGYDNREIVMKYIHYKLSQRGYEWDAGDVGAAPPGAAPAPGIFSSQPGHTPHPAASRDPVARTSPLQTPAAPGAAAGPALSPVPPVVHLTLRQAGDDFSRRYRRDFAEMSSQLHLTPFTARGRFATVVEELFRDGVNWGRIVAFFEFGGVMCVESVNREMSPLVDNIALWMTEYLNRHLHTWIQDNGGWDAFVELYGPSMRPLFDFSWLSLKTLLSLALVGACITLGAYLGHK
Procedure: Fluorescence polarization assay was used to evaluate the effect of the compounds of the present invention on the biological activity of BCL-2.
The effects of the compounds on the biological activity of BCL-2 were evaluated by determining the effects of the compounds on the binding activity of BCL-2 to leukemia pro-apoptotic protein (BIM) using an affinity assay method based on the principle of fluorescence polarization. The reaction buffer comprises the following components: PBS (pH 7.4, 3 mM Na2HPO4, 155 mM NaCl, 1 mM KH2PO4), 1 mM DTT; human recombinant Bcl-2 protein (Item No. 10195-HOSE) (purchased from Beijing Yigiao Shenzhou Biotechnology Co., Ltd.) was diluted to 5 nM with the reaction buffer; FITC-labeled BIM polypeptide (purchased from Nanjing GenScript Biotechnology Co., Ltd.) was diluted to 5 nM with the reaction buffer.
The compounds were dissolved in 100% DMSO and diluted to 0.1, 1, 10 μM, followed by 4-fold serial dilutions with DMSO to a minimum concentration of 0.0061, 0.061, 0.61 nM, each concentration point was further diluted 50-fold with the reaction buffer.
3 μL of solution containing the compound and 12 μL of solution containing BCL-2 were added to the black 384-well assay plate, mixed well, and incubated at room temperature for 15 minutes. Subsequently, 15 μL of FITC-BIM solution was added, and the reaction mixture was incubated at room temperature for 30 minutes in dark place, and then the fluorescence polarization was detected immediately on an Envision multi-mode reader (Perkin Elmer), with 480 nm as the excitation wavelength and 535 nm as the emission wavelength. In this experiment, the group without BCL-2 protein was used as a negative control (100% inhibition), and the group with BCL-2 protein but without the compound was used as a positive control (0% inhibition). The inhibition percentage of the compound to the affinity of BCL-2 can be calculated using the following equation: […]
(§1) The IC50 of the compound was calculated from 8 concentration points using XLfit (ID Business Solutions Ltd., UK) software by the following equation:
(§2) Y=Bottom+(Top−Bottom)/(1+10^((log IC50−X)*slope factor))
(§3) where Y is the inhibition percentage, X is the logarithm of the concentration of the compound to be tested, Bottom is the maximum inhibition percentage, Top is the minimum inhibition percentage, and slope factor is the slope coefficient of the curve.

[2] = molecular target: T2, human recombinant Bcl-XL protein (Homo sapiens, UniProt Q07817); test: Fluorescence polarization test for inhibition of BCL-XL binding to FITC-BIM; settings: 10 nM BCL-XL, 10 nM FITC-BIM, read-out: FP BCL-XL IC50
T2 construct: purchased Beijing Yiqiao Shenzhou Biotechnology Co., Ltd. 10455-H0SE
T2 sequence (Q07817 whole entry): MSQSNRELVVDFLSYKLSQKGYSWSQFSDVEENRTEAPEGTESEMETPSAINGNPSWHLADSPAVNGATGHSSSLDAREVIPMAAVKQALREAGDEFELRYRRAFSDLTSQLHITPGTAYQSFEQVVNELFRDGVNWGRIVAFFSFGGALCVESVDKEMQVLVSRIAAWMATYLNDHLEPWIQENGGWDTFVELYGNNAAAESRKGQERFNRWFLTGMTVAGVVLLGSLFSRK
Procedure: Fluorescence polarization assay was used to evaluate the effect of the compounds of the present invention on the biological activity of BCL-XL.
The effects of the compounds on the biological activity of BCL-XL were evaluated by detecting the effects of the compounds on the binding activity of BCL-XL to BIM using an affinity assay method based on the principle of fluorescence polarization. The reaction buffer contains the following components: PBS (pH 7.4, 3 mM Na2HPO4, 155 mM NaCl, 1 mM KH2PO4), 1 mM DTT; human recombinant Bcl-XL protein (Item No. 10455-H0SE) (purchased from Beijing Yiqiao Shenzhou Biotechnology Co., Ltd.) was diluted to 10 nM with reaction buffer; FITC-labeled BIM polypeptide (purchased from Nanjing GenScript Biotechnology Co., Ltd) was diluted to 10 nM with reaction buffer.
The compounds were dissolved in 100% DMSO and diluted to 1 μM, followed by 4-fold serial dilutions in DMSO to a minimum concentration of 0.061 nM, each concentration point was further diluted 50-fold with reaction buffer.
3 μL of solution containing the compound and 12 μL of solution containing BCL-XL were added to the black 384-well assay plate, mixed well, and incubated at room temperature for 15 minutes. Subsequently, 15 μL of FITC-BIM solution was added, and the reaction mixture was incubated at room temperature for 30 minutes in the dark place, and then the fluorescence polarization was detected immediately on an Envision multi-plate reader (Perkin Elmer), with 480 nm as the excitation wavelength and 535 nm as the emission wavelength. In this experiment, the group without BCL-XL protein was used as a negative control (100% inhibition), and the group with BCL-XL protein but without the compound was added as a positive control (0% inhibition). The inhibition percentage of the compound to the affinity of BCL-XL can be calculated using the following equation: […]
as §1, §2, §3

[3] = test system: RS4;11 cells (acute lymphoblastic leukemia cells); test: RS4;11 cell proliferation, CellTilter-Glo luminescence cell viability assay; assay type: cell-based; settings: CTG readout after 48 hours
Procedure: The effects of the compounds of the present invention on the proliferation of RS4;11 cells were evaluated using a luminescence cell viability assay.
A CellTilter-Glo (CTG) Assay Kit is used to detect ATP, a key indicator of the metabolism of living cells, through a unique, highly sensitive and stable luciferase. The luminescent signal generated in the assay is proportional to the number of the viable cells in the medium, therefore the cell proliferation of RS4;11 can be determined.
CellTilter-Glo reagent (Promega, G7572) is composed of CellTilter-Glo lyophilized powder and CellTilter-Glo buffer, and the lyophilized powder can be dissolved in the buffer for use.
RS4;11 cells (ATCC, CRL-1873) were cultured in RPMI1640 complete medium (Thermofisher, 72400-047) containing 10% FBS (GBICO, 10099-141) and 100 units/ml penicillin-streptomycin solution (Thermofisher, 15140122)), when the cells covered 80-90% in the culture vessel, they were digested and dispersed with 0.25% trypsin (containing EDTA) (Thermofisher, 25200056) and then planted in a white 384-well plate (Thermofisher, 164610), and then the 384-well plate was incubated overnight in a 37° C., 5% CO2 incubator. Compounds were dissolved in 100% DMSO and diluted to […], followed by 4-fold serial dilutions with DMSO to a minimum concentration of 0.061 μM, and each concentration point was further diluted 50-fold with FBS-free RPMI1640 medium. If the IC50 of the compound is very low, the initial concentration of the compound can be reduced. After overnight, 3 μL of the compound diluted in the medium was added to each well, and the mixture was gently centrifuged to mix. The group without cells was used as a negative control (100% inhibition), and the group with 0.2% DMSO was used as a positive control (0% inhibition). The 384-well plate was placed in a 37° C., 5% CO2 incubator for further cultivation. After 48 hours, the plate was taken out and equilibrated to room temperature. 15 μl of CTG reagent was added to each well, the plate was shaken gently for 3 minutes to make sure that the cell lysis was carried out thoroughly, then the plate was kept for 10 minutes to stabilize the luminescence signal, then the luminescence signal was read by EnVision (Perkin Elmer).
The inhibition percentage of the compounds to RS4;11 cell proliferation can be calculated using the following equation:
Inhibition Percentage=100−100*(signal compound-signal negative control)/(signal positive control-signal negative control)
as §1
Y=Bottom+(Top−Bottom)/(1+10^((Log IC50−X)*slope factor))
wherein, Y is the inhibition percentage, Bottom is the bottom plateau of the curve (the bottom plateau value of the S-shaped curve), Top is the top plateau of the curve (the top plateau value of the S-shaped curve), and X is the logarithm of the concentration of the compound to be tested.

| Molecule | IC50 [1] [nM] | IC50 [2] [nM] | IC50 ([3]; Homo sapiens, RS4-11) [nM] | IC50 [3] [nM] |
| --- | --- | --- | --- | --- |
| 2-((1H-Pyrrolo[2,3-b]pyridin-5-yl) oxy)-4-((R)-4-(((S)-4′-chloro-5- methyl-3,4,5,6-tetrahydro-[1,1′-biphenyl]- 2-yl)methyl)-2-methylpiperazn-1- yl)-N-((3-nitro-4-((((S)-4-(3-oxetan yl)morpholin-2-yl)methyl)amino) phenyl)sulfonyl)benzamide [Example 18] | 1.32 | > 1000 | – | 2.4 |
| C[C@@H]1CN(c2ccc(C(=O)NS(=O)(=O)c3cc(F)c(NCC4CCOCC4)c([N+](=O)[O-])c3)c(Oc3cnc4[nH]ccc4c3)c2)CCN1CC1=C(c2ccc(Cl)cc2)CC(C)(C)CC1 [Example 1, (R)-2-((1H-pyrrolo[2,3-b]pyridin-5-yl)oxy)-4-(4-((4′-chloro-5,5-dimethyl-3,4,5,6-tetrahydro-[1,1′-biphenyl]-2-yl)methyl)-3-methylpiperazin-1-yl)-N-((3-fluoro-5-nitro-4-(((tetrahydro-2H-pyran-4-yl)methyl)amino)phenyl)sulfonyl)benzamide] | 2.05 | > 1000 | 4.73 | – |
| C[C@@H]1CN(c2ccc(C(=O)NS(=O)(=O)c3ccc(NCC4CCOCC4)c([N+](=O)[O-])c3)c(Oc3cnc4[nH]ccc4c3)c2)CCN1CC1=C(c2ccc(Cl)cc2)CC(C)(C)CC1 [Example 2, (R)-2-((1H-pyrrolo[2,3-b]pyridin-5-yl)oxy)-4-(4-((4′-chloro-5,5-dimethyl-3,4,5,6-tetrahydro-[1,1′-biphenyl]-2-yl)methyl)-3-methylpiperazin-1-yl)-N-((3-nitro-4-(((tetrahydro-2H-pyran-4-yl)methyl)amino)phenyl)sulfonyl) benzamide] | 2.56 | > 1000 | 11.1 | – |
| C[C@@H]1CN(c2ccc(C(=O)NS(=O)(=O)c3ccc(NC[C@H]4COCCO4)c([N+](=O)[O-])c3)c(Oc3cnc4[nH]ccc4c3)c2)CCN1CC1=C(c2ccc(Cl)cc2)CC(C)(C)CC1 [Example 5, N-((4-((((S)-1,4-dioxan-2-yl)methyl)amino)-3-nitrophenyl)sulfonyl)-2-((1H-pyrrolo[2,3-b]pyridin-5-yl)oxy)-4-((R)-4-((4′-chloro-5,5-dimethyl-3,4,5,6-tetrahydro[1,1′-biphenyl]-2-yl)methyl)-3-methylpiperazin-1-yl) benzamide] | 1.54 | > 1000 | 2.75 | – |
| C[C@@H]1CN(c2ccc(C(=O)NS(=O)(=O)c3cc(F)c(NC[C@H]4COCCO4)c([N+](=O)[O-])c3)c(Oc3cnc4[nH]ccc4c3)c2)CCN1CC1=C(c2ccc(Cl)cc2)CC(C)(C)CC1 [Example 6, N-((4-((((S)-1,4-dioxan-2-yl)methyl)amino)-3-fluoro-5-nitrophenyl)sulfonyl)-2-((1H-pyrrolo[2,3-b]pyridin-5-yl)oxy)-4-((R)-4-((4′-chloro-5,5-dimethyl-3,4,5,6-tetrahydro-[1,1′-biphenyl]-2-yl)methyl)-3-methylpiperazin-1-yl) benzamide] | 0.9 | > 1000 | 2.37 | – |

More lines, main results first:

| IC50 [1] [nM] | IC50 [2] [nM] | IC50 ([3]; Homo sapiens, RS4-11) [nM] | Molecule | IC50 [3] [nM] |
| --- | --- | --- | --- | --- |
| 3.06 | > 1000 | 6.4 | C[C@@H]1CN(c2ccc(C(=O)NS(=O)(=O)c3ccc(NCC4CCN(C5COC5)CC4)c([N+](=O)[O-])c3)c(Oc3cnc4[nH]ccc4c3)c2)CCN1CC1=C(c2ccc(Cl)cc2)CC(C)(C)CC1 [Example 3, (R)-2-((1H-pyrrolo[2,3-b]pyridin-5-yl)oxy)-4-(4-((4′-chloro-5,5-dimethyl-3,4,5,6-tetrahydro-[1,1′-biphenyl]-2-yl)methyl)-3-methylpiperazin-1-yl)-N-((3--nitro-4(((1-(3-oxetanyl)piperidin-4-yl)methyl)amino)phenyl)sulfonyl) benzamide] | – |
| 2.29 | 743 | 5.8 | C[C@@H]1CN(c2ccc(C(=O)NS(=O)(=O)c3cc(F)c(NCC4CCN(C5COC5)CC4)c([N+](=O)[O-])c3)c(Oc3cnc4[nH]ccc4c3)c2)CCN1CC1=C(c2ccc(Cl)cc2)CC(C)(C)CC1 [Example 4, (R)-2-((1H-pyrrolo[2,3-b]pyridin-5-yl)oxy)-4-(4-((4′-chloro-5,5-dimethyl-3,4,5,6-tetrahydro-[1,1′-biphenyl]-2-yl)methyl)-3-methylpiperazin-1-yl)-N-((3-fluoro-5-nitro-4-(((1-(3-oxetanyl)piperidin-4-yl)methyl)amino)phenyl)sulfonyl) benzamide] | – |
| > 100 | > 1000 | > 500 | C[C@H]1CN(c2ccc(C(=O)NS(=O)(=O)c3cc(F)c(NCC4CCOCC4)c([N+](=O)[O-])c3)c(Oc3cnc4[nH]ccc4c3)c2)CCN1CC1=C(c2ccc(Cl)cc2)CC(C)(C)CC1 [Example 7, (S)-2-((1H-pyrrolo[2,3-b]pyridin-5-yl)oxy)-(4-4-((4′-chloro-5,5-dimethyl-3,4,5,6-tetrahydro-[1,1′-biphenyl]-2-yl)methyl)-3-methylpiperazin-1-yl)-N-((3-fluoro-5-nitro-4-(((tetrahydro-2H-pyran-4-yl)methyl)amino)phenyl)sulfonyl) benzamide] | – |
